According to patent publication US20260083751A1, “ALLOSTERIC MODULATORS OF ANDROGEN RECEPTOR COACTIVATOR RECRUITMENT FOR CRPC THERAPY” (University of Pittsburgh – Of the Commonwealth System of …, priority 2022, published 2026):
Like-named read-outs stand apart in the source and are kept apart here.

How the values were obtained:
Format in all cases: cell-based
[1] = system: AR-V7 directed transcriptional activation in PC3-AR-V7-EGFP cells; assay: AR-V7 driven PSA6.1-Luc and UBE2C-Luc reporter assays, results stated jointly; conditions: both reporters; read-out: IC50s, both PSA6-6.1-Luc and UBE2C-Luc reporters in PC3-AR-V7-EGFP cells (potency range in words)
Experimental: PSA6.1 Promoter Driven Luciferase Reporter Assay in PC3-AR-V7-GFP Cells: PC3-AR-V7-GFP cells were bulk transfected with a mixture of FuGENE® HD transfection agent and the PSA-6.1-Luc reporter plasmid (20 ng/well) combined at a 3:1 (μL:μg) ratio in Opti-MEM™ medium (Gibco, Gaithersburg, MD) that had been incubated for 25 min at RT before being added to PC3-AR-V7-GFP cells that were suspended in RPMI 1640 (Gibco) media containing 1% L-glutamine (Invitrogen), and 10% fetal bovine serum (Gemini Bio-products). Bulk transfected PC3-AR-V7-GFP cells were seeded into white opaque 384-well assay plates (Greiner Bio-one, #781080) at 3,000 cells per well in a volume of 40 μL and incubated at 5% CO2, 37° C., and 95% humidity for 24 h. After 24 h, 5 μL of compounds were transferred to assay wells and the plates were returned to the incubator for an additional 24 h before 25 μL of BrightGlo® luciferase reagent (Promega) was added to the wells and the RLU's were captured on a SpectraMax® M5e plate reader (Molecular Devices LLC) as described previously (Fancher et al., Assay Drug Dev Technol. 2019, 17:364-386).
UBE2C Promoter Driven Luciferase Reporter Assay in PC3-AR-V7-GFP Cells: The pGL4.28-UBE2C 20bpX3 luciferase reporter plasmid (Xu et al., Cancer Res 2015, 75:3663-71) was provided by Dr. Yan Dong from Tulane University. […]

PC-3 cells = assay: Prostate cancer cell line growth inhibition assay, PC-3; conditions: read-out: AR negative PC-3 GI50
Experimental: (§1) Prostate Cancer Cell Line Growth Inhibition Assays: The PC-3, DU-145, LNCaP, C4-2, and 22Rv1 PC cell line growth inhibition assays have been described previously (Fancher et al., Assay Drug Dev Technol. 2016, 14:453-477; Fancher et al., Assay Drug Dev Technol. 2019, 17:364-386). On day 1, each PC cell line was harvested, counted, and seeded into two 384-well assay plates, a time zero (T0) and a time 72 h (T72) plate. […] On day 2, 25 μL of the CellTiter-Glo® (CTG) (Promega Corporation, Madison, WI) detection reagent was dispensed into the wells of the TO assay plate using a Matrix electronic multichannel pipette, and the RLUs were captured on the SpectraMax® M5e (Molecular Devices LLC, Sunnyvale, CA) microtiter plate reader. […] On day 5, 25 μL of the CTG detection reagent was dispensed into the wells of the T72 assay plate using a Matrix electronic multichannel pipette, and the RLU's were captured on the SpectraMax® M5e microtiter plate reader platform.
(§2) For the 96-well AR-LBD H^3-DHT radioligand binding assay, eight minimum and maximum plate control wells were utilized to normalize the data. […] To normalize the 72 h compound exposure PC growth inhibition data, the signals from the compound treated wells were processed and expressed as % of the T72 DMSO plate controls. […]

DU-145 cells = assay: Prostate cancer cell line growth inhibition assay, DU-145; conditions: read-out: AR negative DU-145 GI50
Experimental: as §1, §2

[2] = Cytotoxicity counter screens to the reporter assays; conditions: counter screens to M2H, PSA-Luc, AR-V7 reporters, read-out: IC50 in cytotoxicity counter screen

Compound	IC50 [1]	GI50 (PC-3 cells; 72 h, listed as 1)	GI50 (DU-145 cells; 72 h, listed as 1)	IC50 [2]	IC50 at 24 h ([2]; human, PC3-AR-V7-EGFP cells)	GI50 (PC-3 cells; Homo sapiens, PC-3, 72 h)	GI50 (DU-145 cells; Homo sapiens, DU-145, 72 h)
Cc1ccccc1-c1cc(O)c2c(c1)CN(c1nc(C(N)=O)cs1)CCO2 [Compound S1-1]	10 to 100 µM	61.1 µM	60.5 µM				
Cc1nc(N)cc(N2CCOc3c(O)cc(-c4ccccc4C)cc3C2)n1 [Compound S1-2]	10 to 100 µM			45.6 µM	45.9 µM		
Cc1c(-c2ccccc2F)[nH]c2ccc(CNC(=O)CCc3cn[nH]c3)cc12 [Compound S3-11]						28.4 µM	15.9 µM
